Reference: patent US12565497B2 (Hoffmann-La Roche Inc., priority 2020, dated 2026)
Structures can show the parent of a compound that is named as a salt.

Target: Recombinant human Mat2a (Homo sapiens (Human), UniProt P31153)
Assay: Determination of Mat2A activity (384 well absorbance-based assay, Biomol Green)
Format: biochemical
Conditions: 12.5 nM Mat2A, 100 μM ATP and Methionine, 2% DMSO, 120 minutes at RT, absorbance at 635 nm; read-out: MAT2A_LEC IC50 (uM) (Num)
Description: Determination of Mat2A Activity
Measurement of Mat2A inhibition is performed in 384 well format absorbance-based assay. Recombinant human Mat2a (12.5 nM) and serial diluted compounds in DMSO (range of concentrations from 10 μM to 508 pM) or controls (DMSO) are incubated for 15 minutes at room temperature (RT) in assay buffer containing 50 mM HEPES pH 7.5, 50 mM KCl, 50 mM MgCl2, 0.01%Tween 20 and 10 mM DTT. The reaction is initiated by the addition of the combined substrates ATP and Methionine, each at a final concentration of 100 μM. Final assay condition are 12.5 nM Mat2A, 100 μM ATP and Methionine Substrates and 2% DMSO. After 120 minutes of incubation at RT, the reaction is stopped by the addition of Biomol Green. The absorbance signal is measured at λ=635 nm with a multiplate reader (BMG Pherastar reader or equivalent) after 30 min of equilibration at RT.

Recombinant human Mat2a, sequence (P31153 whole entry): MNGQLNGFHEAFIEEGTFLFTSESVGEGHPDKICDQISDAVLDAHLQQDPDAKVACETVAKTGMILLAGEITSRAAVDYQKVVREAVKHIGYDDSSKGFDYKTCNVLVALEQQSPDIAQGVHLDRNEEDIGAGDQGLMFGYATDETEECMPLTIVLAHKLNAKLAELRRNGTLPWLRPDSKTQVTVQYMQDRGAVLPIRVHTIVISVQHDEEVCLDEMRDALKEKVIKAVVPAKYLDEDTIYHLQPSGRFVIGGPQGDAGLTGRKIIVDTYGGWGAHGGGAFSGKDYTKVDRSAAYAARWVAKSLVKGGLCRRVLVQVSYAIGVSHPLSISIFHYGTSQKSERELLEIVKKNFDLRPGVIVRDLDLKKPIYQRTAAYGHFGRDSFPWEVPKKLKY

| IC50 [µM] | Compound |
| --- | --- |
| < 0.013 | Cc1cc(-c2c(C(N)=O)ncc3[nH]nc(OC(F)F)c23)ccc1S(=O)(=O)C(F)F [Example 106, 3-(difluoromethoxy)-4-[4-(difluoromethylsulfonyl)-3-methyl-phenyl]-1H-pyrazolo[3,4-c]pyridine-5-carboxamide] |
| 0.26 | CS(=O)(=O)c1ccc(-c2nccc3[nH]nc(C4CC4)c23)cc1N [Example 59, 5-(3-cyclopropyl-1H-pyrazolo[4,3-c]pyridin-4-yl)-2-(methylsulfonyl)aniline] |
| 0.046 | Cc1cc(-c2nccc3[nH]nc(C4CC4)c23)ccc1S(=O)(=O)C1CC1 [Example 7, 3-cyclopropyl-4-(4-(cyclopropylsulfonyl)-3-methylphenyl)-1H-pyrazolo[4,3-c]pyridine] |
| < 0.013 | CNC(=O)c1ncc2[nH]nc(OC(F)F)c2c1-c1ccc(S(C)(=O)=O)c(C)c1 [Example 110, 3-(difluoromethoxy)-N-methyl-4-(3-methyl-4-methylsulfonyl-phenyl)-1H-pyrazolo[3,4-c]pyridine-5-carboxamide] |
| 0.029 | CNS(=O)(=O)c1ccc(-c2nccc3[nH]nc(OC(F)F)c23)cc1C [Example 33, 4-[3-(difluoromethoxy)-1H-pyrazolo[4,3-c]pyridin-4-yl]-N,2-dimethyl-benzenesulfonamide] |
| 0.13 | CN(C)S(=O)(=O)c1ccc(-c2nccc3[nH]nc(OC(F)F)c23)cc1C(F)F [Example 48, 4-[3-(difluoromethoxy)-1H-pyrazolo[4,3-c]pyridin-4-yl]-2-(difluoromethvl)-N,N-dimethyl-benzenesulfonamide] |
| 0.19 | Cc1cc(-c2nccc3[nH]nc(Br)c23)ccc1S(C)(=O)=O [Example 56, 3-bromo-4-(3-methyl-4-(methylsulfonyl)phenyl)-1H-pyrazolo[4,3-c]pyridine] |
| < 0.013 | Cc1cc(-c2c(C#N)ncc3[nH]nc(OC(F)F)c23)ccc1S(=O)(=O)C(F)F [Example 105, 3-(difluoromethoxy)-4-(4-((difluoromethyl)sulfonyl)-3-methylphenyl)-1H-pyrazolo[3,4-c]pyridine-5-carbonitrile] |
| < 0.013 | Cc1cc(-c2c(S(=O)(=O)C3CC3)ccc3[nH]nc(OC(F)F)c23)ccc1S(C)(=O)=O [Example 118, 5-cyclopropylsulfonyl-3-(difluoromethoxy)-4-(3-methyl-4-methylsulfonyl-phenyl)-1H-indazole] |
| 0.095 | Cc1cc(-c2nccc3[nH]nc(C(F)F)c23)ccc1S(C)(=O)=O [Example 18, 3-(difluoromethyl)-4-(3-methyl-4-methylsulfonylphenyl)-1H-pyraxolo[4,3-c]pyridine] |
| < 0.013 | Cc1cc(-c2nccc3[nH]nc(OC(F)F)c23)ccc1S(=O)(=O)C(C)C [Example 32] |
| 0.11 | CS(=O)(=O)c1ccc(-c2nccc3[nH]nc(C4CC4)c23)cc1CF [Example 13, 3-cyclopropyl-4-(3-(fluoromethyl)-4-(methylsulfonyl)phenyl)-1H-pyrazolo[4,3-c]pyridine] |
| 0.24 | COc1n[nH]c2ccnc(-c3ccc(S(C)(=O)=O)c(C)c3)c12 [Example 58, 3-methoxy-4-(3-methyl-4-(methylsulfonyl)phenyl)-1H-pyrazolo[4,3-c]pyridine] |
| 0.12 | Cc1cc(-c2nccc3[nH]nc(OC(F)F)c23)ccc1S(=O)(=O)C1COC1 [Example 35, 3-(difluoromethoxy)-4-[3-methyl-4-(oxetan-3-ylsulfonyl)phenyl]-1H-pyrazolo[4,3-c]pyridine] |
| < 0.013 | Cc1cc(-c2c(C(N)=O)ncc3[nH]nc(OC(F)F)c23)ccc1S(C)(=O)=O [Example 98, 3-(difluoromethoxy)-4-(3-methyl-4-methylsulfonyl-phenyl)-1H-pyrazolo[3,4-c]pyridine-5-carboxamide] |
| 0.37 | COc1cc(-c2nccc3[nH]nc(C4CC4)c23)ccc1S(C)(=O)=O [Example 2, 3-cyclopropyl-4-(3-methoxy-4-(methylsulfonyl)phenyl)-1H-pyrazolo[4,3-c]pyridine] |

Second part, the compound before the results:

| Compound | IC50 [µM] |
| --- | --- |
| CNC(=O)c1ncc2[nH]nc(C3CC3)c2c1-c1ccc(S(=O)(=O)C2CC2)c(C)c1 [Example 89, 3-cyclopropyl-4-(4-cyclopropylsulfonyl-3-methyl-phenyl)-N-methyl-1H-pyrazolo[3,4-c]pyridine-5-carboxamide] | 0.035 |
| CS(=O)(=O)c1ccc(-c2nccc3[nH]nc(C(F)(F)F)c23)cc1 [Example 11, 4-(4-(methylsulfonyl)phenyl)-3-(trifluoromethyl)-1H-pyrazolo[4,3-c]pyridine] | 0.28 |
| Cc1cc(-c2c(C#N)ccc3[nH]cc(C4CC4)c23)ccc1S(C)(=O)=O [Example 45, 3-cyclopropyl-4-(3-methyl-4-methylsulfonylphenyl)-1H-indole-5-carbonitrile] | 0.02 |
| CC(=O)NCCOCCNc1cnc(-c2ccc(S(C)(=O)=O)c(C)c2)c2c(C3CC3)n[nH]c12 [Example 99, N-[2-[2-[[3-cyclopropyl-4-(3-methyl-4-methylsulfonyl-phenyl)-1H-pyrazolo[4,3-c]pyridin-7-yl]amino]ethoxy]ethyl]acetamide] | 0.07 |
| Cc1cc(-c2c(S(C)(=O)=O)ccc3[nH]nc(C4CC4)c23)ccc1S(C)(=O)=O [Example 77, 3-cyclopropyl-4-(3-methyl-4-(methylsulfonyl)phenyl)-5-(methylsulfonyl)-1H-indazole] | 0.013 |
| Cc1cc(-c2nccc3[nH]nc(C4CC4)c23)ccc1[S+](C)[O-] (stereo not shown) [Example 23, 3-cyclopropyl-4-(3-methyl-4-methylsulfmyl-phenyl)-1H-pyrazolo[4,3-c]pyridine hydrochloride] | 0.083 |
| CCS(=O)(=O)c1ccc(-c2c(C#N)ncc3[nH]nc(C4CC4)c23)cc1C [Example 42, 3-cyclopropyl-4-(4-ethylsulfonyl-3-methyl-phenyl)-1H-pyrazolo[3,4-c]pyridine-5-carbonitrile] | < 0.013 |
| CN=S(C)(=O)c1ccc2[nH]nc(C3CC3)c2c1-c1ccc(S(C)(=O)=O)c(C)c1 (stereo not shown) [Example 113, [3-cyclopropyl-4-(3-methyl-4-methylsulfonyl-phenyl)-1H-indazol-5-yl]-methyl-methylimino-oxo-λ^6-sulfane] | 0.31 |
| Cc1cc(-c2c(C(=O)N(C)C)ncc3[nH]nc(C4CC4)c23)ccc1S(C)(=O)=O [Example 83, 3-cyclopropyl-N,N-dimethyl-4-(3-methyl-4-(methylsulfonyl)phenyl)-1H-pyrazolo[3,4-c]pyridine-5-carboxamide] | 0.5 |
| Cc1cc(-c2c(C3CC3)ncc3[nH]nc(C4CC4)c23)ccc1S(C)(=O)=O [Example 85] | 0.02 |
| Cc1cc(-c2c(C(N)=O)ncc3[nH]nc(C4CC4)c23)ccc1S(C)(=O)=O [Example 72, 3-cyclopropyl-4-(3-methyl-4-(methylsulfonyl)phenyl)-1H-pyrazolo[3,4-c]pyridine-5-carboxamide] | < 0.013 |
| CS(=O)(=O)c1ccc(-c2c(S(C)(=O)=O)ccc3[nH]nc(C4CC4)c23)cc1C(F)F [Example 94, 3-cyclopropyl-4-(3-(difluoromethyl)-4-(methylsulfonyl)phenyl)-5-(methylsulfonyl)-1H-indazole] | 0.05 |
| Cc1cc([S+](C)[O-])c(C(F)F)cc1-c1c(C#N)ncc2[nH]nc(OC(F)F)c12 (stereo not shown) [Example 53, 3-(difluoromethoxy)-4-[5-(difluoromethyl)-2-methyl-4-methylsulfinyl-phenyl]-1H-pyrazolo[3,4-c]pyridine-5-carbonitrile] | 0.062 |
| Cc1cc(-c2c(C#N)ccc3[nH]nc(C4CC4)c23)ccc1S(C)(=O)=O [Example 63, 3-cyclopropyl-4-(3-methyl-4-methylsulfonylphenyl)-1H-indazole-5-carbonitrile] | < 0.013 |
| Cc1cc(-c2c([S+](C)[O-])ccc3[nH]nc(C4CC4)c23)ccc1S(C)(=O)=O (stereo not shown) [Example 76, 3-cyclopropyl-4-(3-methyl-4-(methylsulfonyl)phenyl)-5-(methylsulfinyl)-1H-indazole] | 0.26 |
| Cc1cc(-c2ncc(NCCCCN)c3[nH]nc(C4CC4)c23)ccc1S(C)(=O)=O [Example 102, N′-[3-cyclopropyl-4-(3-methyl-4-methylsulfonyl-phenyl)-1H-pyrazolo[4,3-c]pyridin-7-yl]butane-1,4-diamine] | 0.06 |
| Cc1cc(-c2nc(Cl)cc3[nH]nc(C4CC4)c23)ccc1S(C)(=O)=O [Example 34, 6-chloro-3-cyclopropyl-4-(3-methyl-4-methylsulfonylphenyl)-1H-pyrazolo[4,3-c]pyridine] | < 0.013 |
| COc1ncc2[nH]nc(C3CC3)c2c1-c1ccc(S(C)(=O)=O)cc1 [Example 6, 3-cyclopropyl-5-methoxy-4-(4-methylsulfonylphenyl)-1H-pyrazolo[3,4-c]pyridine] | 0.17 |
| Cc1cc(-n2c(=O)c(C)cc3[nH]nc(C4CC4)c32)ccc1S(C)(=O)=O [Example 80, 3-cyclopropyl-6-methyl-4-(3-methyl-4-methylsulfonyl-phenyl)-1H-pyrazolo[4,3-b]pyridin-5-one] | 0.031 |
| CC(=O)NCCCCNc1cnc(-c2ccc(S(C)(=O)=O)c(C)c2)c2c(C3CC3)n[nH]c12 [Example 103, N-[4-[[3-cyclopropyl-4-(3-methyl-4-methylsulfonyl-phenyl)-1H-pyrazolo[4,3-c]pyridin-7-yl]amino]butyl]acetamide] | 0.04 |
| COCc1ncc2[nH]nc(C3CC3)c2c1-c1ccc(S(C)(=O)=O)c(C)c1 [Example 41, 3-cyclopropyl-5-(methoxymethyl)-4-(3-methyl-4-(methylsulfonyl)phenyl)-1H-pyrazolo[3,4-c]pyridine] | 0.14 |
